The values below come from ChEMBL document CHEMBL1201862, “PubChem BioAssay data set” (2004).

Activity calls are given as the source filed them. A value given as a limit tells only on which side of the number the result lay.

Assay [1] deals with T1, RNA-binding protein pos-1 (Caenorhabditis elegans, UniProt G5EF15).
T1 sequence (G5EF15 whole entry): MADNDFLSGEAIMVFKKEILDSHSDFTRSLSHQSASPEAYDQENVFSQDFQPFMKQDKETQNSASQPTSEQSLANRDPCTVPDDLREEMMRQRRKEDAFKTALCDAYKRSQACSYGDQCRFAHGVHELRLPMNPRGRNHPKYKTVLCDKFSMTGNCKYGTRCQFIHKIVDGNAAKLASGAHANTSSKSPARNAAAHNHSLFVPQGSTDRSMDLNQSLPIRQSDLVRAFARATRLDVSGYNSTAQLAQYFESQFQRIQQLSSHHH
Kind of assay: inhibitors of POS-1/mex-3 RNA binding, dose response, biochemical, fluorescence polarization (AID 1964).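 Also: purified POS-1 fused to maltose binding protein made in E. coli; potency of compounds blocking POS-1 binding to fluorescent RNA.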

The target of assay [2] is T2, Alkaline phosphatase, tissue-nonspecific isozyme (Homo sapiens, UniProt P05186).
T2 sequence (P05186 whole entry): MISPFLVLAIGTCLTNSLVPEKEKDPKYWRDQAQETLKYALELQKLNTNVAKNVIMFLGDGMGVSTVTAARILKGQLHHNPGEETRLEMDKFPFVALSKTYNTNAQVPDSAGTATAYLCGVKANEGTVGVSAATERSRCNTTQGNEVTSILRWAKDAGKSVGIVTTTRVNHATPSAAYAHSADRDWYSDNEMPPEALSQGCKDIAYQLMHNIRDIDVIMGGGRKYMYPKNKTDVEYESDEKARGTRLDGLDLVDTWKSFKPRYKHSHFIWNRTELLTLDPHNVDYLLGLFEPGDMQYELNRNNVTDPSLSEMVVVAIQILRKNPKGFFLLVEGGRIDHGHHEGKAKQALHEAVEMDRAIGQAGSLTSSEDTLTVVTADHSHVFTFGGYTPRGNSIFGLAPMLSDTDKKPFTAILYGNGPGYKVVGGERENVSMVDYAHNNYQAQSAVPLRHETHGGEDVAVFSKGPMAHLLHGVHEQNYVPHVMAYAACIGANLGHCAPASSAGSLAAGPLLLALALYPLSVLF
Kind of assay: TNAP enzyme activators, dose response, selectivity assay for mouse IAP activator project, biochemical, TNAP isozyme, mouse IAP uHTS hits (AID 488880). The assay is classed as functional.

Assay [3] has as its target Intestinal-type alkaline phosphatase (Homo sapiens, UniProt P09923). Kind of assay: activation of human intestinal alkaline phosphatase – biochemical, dose response (AID 488873). Type of assay: functional.
Assay [4] has as its target T2, Alkaline phosphatase, tissue-nonspecific isozyme. Nature of the assay: human TNAP enzyme inhibitors, SAR follow-up, biochemical, luminescent, dose response (AID 1056).
Assay [5] concerns the target T3, Zinc finger protein mex-5 (Caenorhabditis elegans, UniProt Q9XUB2).
T3 sequence (Q9XUB2 whole entry): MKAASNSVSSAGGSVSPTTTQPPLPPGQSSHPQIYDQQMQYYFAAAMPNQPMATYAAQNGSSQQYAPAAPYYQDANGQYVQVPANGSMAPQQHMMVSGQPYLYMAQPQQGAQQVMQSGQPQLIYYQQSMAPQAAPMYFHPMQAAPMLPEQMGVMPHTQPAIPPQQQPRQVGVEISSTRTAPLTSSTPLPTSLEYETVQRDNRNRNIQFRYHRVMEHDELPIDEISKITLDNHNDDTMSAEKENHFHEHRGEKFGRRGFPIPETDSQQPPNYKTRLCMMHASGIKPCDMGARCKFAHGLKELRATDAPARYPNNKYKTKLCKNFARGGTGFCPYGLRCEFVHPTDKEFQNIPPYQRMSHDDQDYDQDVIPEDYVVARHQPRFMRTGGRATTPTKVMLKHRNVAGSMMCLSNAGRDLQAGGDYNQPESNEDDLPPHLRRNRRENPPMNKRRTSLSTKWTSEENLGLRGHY
Kind of assay: MEX-5/TCR-2 RNA interaction inhibitors, dose response, biochemical, C. elegans, fluorescence polarization (AID 1960). (In general: Fluorescence polarisation rises when a labelled molecule tumbles more slowly, as on binding a larger partner.)

Assay [6] has as its target Intestinal-type alkaline phosphatase (Mus musculus, UniProt P24822). Nature of the assay: mouse intestinal alkaline phosphatase activators, dose response, biochemical, luminescence, uHTS hits (AID 488783). Type of assay: functional.
Assay [7] addresses T4, Ubiquitin-conjugating enzyme E2 N (Homo sapiens, UniProt P61088).
T4 sequence (P61088 whole entry): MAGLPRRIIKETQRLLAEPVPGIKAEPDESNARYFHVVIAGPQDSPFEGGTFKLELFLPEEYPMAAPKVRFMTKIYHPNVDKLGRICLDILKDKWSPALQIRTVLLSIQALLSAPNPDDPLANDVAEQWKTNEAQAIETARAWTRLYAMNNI
The assay is classed as functional.

Assay [8] addresses T5, High affinity choline transporter 1 (Homo sapiens, UniProt Q9GZV3).
T5 sequence (Q9GZV3 whole entry): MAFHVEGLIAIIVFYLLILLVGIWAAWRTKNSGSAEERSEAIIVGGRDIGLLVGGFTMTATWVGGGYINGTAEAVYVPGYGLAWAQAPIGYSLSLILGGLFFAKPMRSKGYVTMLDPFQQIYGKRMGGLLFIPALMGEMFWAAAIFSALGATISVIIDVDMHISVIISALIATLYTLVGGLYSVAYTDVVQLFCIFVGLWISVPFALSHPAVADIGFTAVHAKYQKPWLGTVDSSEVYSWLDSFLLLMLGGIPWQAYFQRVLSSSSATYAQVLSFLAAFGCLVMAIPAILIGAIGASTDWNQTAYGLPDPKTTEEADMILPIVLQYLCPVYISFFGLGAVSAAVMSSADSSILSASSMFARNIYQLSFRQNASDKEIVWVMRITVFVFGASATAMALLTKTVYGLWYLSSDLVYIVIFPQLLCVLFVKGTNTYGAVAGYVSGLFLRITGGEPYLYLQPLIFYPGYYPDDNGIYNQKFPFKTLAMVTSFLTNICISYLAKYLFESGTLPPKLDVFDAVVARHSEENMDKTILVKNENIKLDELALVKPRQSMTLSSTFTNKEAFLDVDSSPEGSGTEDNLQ
Kind of assay: CHT inhibitors, dose response, cell-based, 5-point CRC, membrane potential dye (AID 504840). The assay is classed as functional.

The target of assay [9] is T4, Ubiquitin-conjugating enzyme E2 N. The assay is classed as functional. This is another data set of the same source.
Assay [10] has as its target Bcl-2-related protein A1 (Mus musculus, UniProt Q07440). The assay is classed as functional.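 Also: confirmatory dose–response counterscreen on Bfl-1, used to check hits from a UBC13 polyubiquitin inhibitor campaign.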
Assay [11] can be described thus: cells. Type of assay: functional.
Assay [12] is described as follows: THP-1 cell cytotoxicity, dose response, cytotoxicity control for non-replicating M. tuberculosis project (AID 489025). The assay is classed as functional.
Assay [13] has as its target Voltage-dependent T-type calcium channel subunit alpha-1H (Homo sapiens, UniProt O95180). Nature of the assay: Cav3.2 T-type channel inhibitors, synthesized analogs, SAR follow-up, cell-based, synthetic library set 2, HEK293 HH8, Fluo-4 (AID 493023). Type of assay: functional.
Assay [14] deals with T6, Nucleotide-binding oligomerization domain-containing protein 1 (Homo sapiens, UniProt Q9Y239).
T6 sequence (Q9Y239 whole entry): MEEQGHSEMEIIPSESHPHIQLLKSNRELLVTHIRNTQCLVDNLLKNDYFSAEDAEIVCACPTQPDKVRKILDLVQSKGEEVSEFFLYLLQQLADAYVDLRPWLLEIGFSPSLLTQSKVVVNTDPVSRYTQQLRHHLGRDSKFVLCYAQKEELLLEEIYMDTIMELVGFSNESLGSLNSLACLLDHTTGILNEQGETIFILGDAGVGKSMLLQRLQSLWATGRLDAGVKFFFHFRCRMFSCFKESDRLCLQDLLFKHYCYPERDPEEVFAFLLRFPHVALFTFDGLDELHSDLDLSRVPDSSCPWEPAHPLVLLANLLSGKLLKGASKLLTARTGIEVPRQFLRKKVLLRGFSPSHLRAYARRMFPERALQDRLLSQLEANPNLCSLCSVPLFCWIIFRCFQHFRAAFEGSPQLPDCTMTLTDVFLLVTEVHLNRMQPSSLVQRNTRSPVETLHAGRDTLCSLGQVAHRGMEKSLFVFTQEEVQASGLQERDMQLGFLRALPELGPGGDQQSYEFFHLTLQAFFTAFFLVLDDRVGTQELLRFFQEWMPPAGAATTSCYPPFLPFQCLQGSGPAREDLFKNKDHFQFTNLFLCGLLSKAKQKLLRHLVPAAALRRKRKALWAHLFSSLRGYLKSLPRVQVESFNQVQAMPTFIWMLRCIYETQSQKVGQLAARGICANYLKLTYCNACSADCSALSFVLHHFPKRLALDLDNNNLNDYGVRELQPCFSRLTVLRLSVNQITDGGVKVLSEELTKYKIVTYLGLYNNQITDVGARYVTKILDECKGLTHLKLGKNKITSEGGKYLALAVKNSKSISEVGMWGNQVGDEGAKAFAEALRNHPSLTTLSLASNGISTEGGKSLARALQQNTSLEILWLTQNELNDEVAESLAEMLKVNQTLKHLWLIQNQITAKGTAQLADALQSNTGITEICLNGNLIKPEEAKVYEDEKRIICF
Nature of the assay: SAR analysis of compounds that inhibit NOD1 - Set 3. [Related pubchem assays (depositor defined):AID1566, AID1575, AID1578, AID1849, AID1852, AID2333, AID2335, AID2466]. Type of assay: functional.

The subject of assay [15] is HEK293. Kind of assay: SAR analysis of compounds that are cytotoxic to HEK293 - Set 3. [Related pubchem assays (depositor defined):AID1575, AID1578, AID1848, AID1849, AID2001, AID2333, AID2334, AID2335, AID2337, AID2469]. To be noted: Homo sapiens. Type of assay: functional, cell-based.
The target of assay [16] is Tumor necrosis factor (Homo sapiens, UniProt P01375). Kind of assay: TNFa-triggered NF-kB activation inhibitors, SAR follow-up, cell-based, set 3 (AID 2801). The assay is classed as functional.
For assay [17], the target named is Nucleotide-binding oligomerization domain-containing protein 2 (Homo sapiens, UniProt Q9HC29). Kind of assay: NOD2 signaling inhibitors, analog potency, SAR follow-up, cell-based, set 3 (AID 2799). The assay is classed as functional.
Sequence of Nucleotide-binding oligomerization domain-containing protein 2 (Q9HC29 whole entry, the tested form may be a part): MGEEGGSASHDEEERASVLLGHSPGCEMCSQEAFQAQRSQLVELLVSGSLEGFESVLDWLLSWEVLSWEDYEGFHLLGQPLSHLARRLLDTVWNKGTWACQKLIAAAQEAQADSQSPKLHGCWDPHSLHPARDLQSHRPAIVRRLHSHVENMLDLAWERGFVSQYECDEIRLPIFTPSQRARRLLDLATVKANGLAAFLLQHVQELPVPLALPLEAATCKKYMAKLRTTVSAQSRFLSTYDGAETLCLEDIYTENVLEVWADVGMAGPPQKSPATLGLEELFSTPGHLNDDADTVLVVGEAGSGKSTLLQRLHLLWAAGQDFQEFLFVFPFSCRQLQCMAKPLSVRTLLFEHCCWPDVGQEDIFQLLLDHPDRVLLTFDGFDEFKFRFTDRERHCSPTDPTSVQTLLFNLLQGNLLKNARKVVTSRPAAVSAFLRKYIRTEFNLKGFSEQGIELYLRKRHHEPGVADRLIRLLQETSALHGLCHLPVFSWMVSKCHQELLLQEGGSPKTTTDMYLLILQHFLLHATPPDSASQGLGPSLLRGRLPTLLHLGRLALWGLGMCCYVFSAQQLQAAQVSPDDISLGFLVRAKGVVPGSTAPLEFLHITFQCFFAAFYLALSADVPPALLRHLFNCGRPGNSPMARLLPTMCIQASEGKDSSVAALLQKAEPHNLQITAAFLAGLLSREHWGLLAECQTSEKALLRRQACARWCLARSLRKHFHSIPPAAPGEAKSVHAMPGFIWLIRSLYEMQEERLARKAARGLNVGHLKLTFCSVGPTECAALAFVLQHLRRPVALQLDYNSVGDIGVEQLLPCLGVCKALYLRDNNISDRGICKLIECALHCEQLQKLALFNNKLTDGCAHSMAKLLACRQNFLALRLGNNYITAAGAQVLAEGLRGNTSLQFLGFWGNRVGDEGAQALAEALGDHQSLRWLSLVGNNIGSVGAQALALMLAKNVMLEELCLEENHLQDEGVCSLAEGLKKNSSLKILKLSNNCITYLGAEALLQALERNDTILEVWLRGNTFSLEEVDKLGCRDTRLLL

Sequence of Bcl-2-related protein A1 (Q07440 whole entry): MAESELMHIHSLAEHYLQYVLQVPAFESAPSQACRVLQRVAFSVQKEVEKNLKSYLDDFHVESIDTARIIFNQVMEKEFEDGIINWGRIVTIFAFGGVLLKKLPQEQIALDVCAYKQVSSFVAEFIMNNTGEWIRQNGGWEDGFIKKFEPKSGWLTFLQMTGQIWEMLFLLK
Sequence of Tumor necrosis factor (P01375 whole entry, the tested form may be a part): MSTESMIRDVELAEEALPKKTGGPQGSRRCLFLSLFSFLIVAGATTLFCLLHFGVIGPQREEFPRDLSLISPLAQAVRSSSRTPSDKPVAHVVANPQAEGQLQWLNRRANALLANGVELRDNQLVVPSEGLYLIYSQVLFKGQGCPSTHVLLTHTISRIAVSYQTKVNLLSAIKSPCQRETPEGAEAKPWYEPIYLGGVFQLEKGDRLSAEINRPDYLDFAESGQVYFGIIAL
Sequence of Intestinal-type alkaline phosphatase (Homo sapiens, UniProt P09923) (P09923 whole entry): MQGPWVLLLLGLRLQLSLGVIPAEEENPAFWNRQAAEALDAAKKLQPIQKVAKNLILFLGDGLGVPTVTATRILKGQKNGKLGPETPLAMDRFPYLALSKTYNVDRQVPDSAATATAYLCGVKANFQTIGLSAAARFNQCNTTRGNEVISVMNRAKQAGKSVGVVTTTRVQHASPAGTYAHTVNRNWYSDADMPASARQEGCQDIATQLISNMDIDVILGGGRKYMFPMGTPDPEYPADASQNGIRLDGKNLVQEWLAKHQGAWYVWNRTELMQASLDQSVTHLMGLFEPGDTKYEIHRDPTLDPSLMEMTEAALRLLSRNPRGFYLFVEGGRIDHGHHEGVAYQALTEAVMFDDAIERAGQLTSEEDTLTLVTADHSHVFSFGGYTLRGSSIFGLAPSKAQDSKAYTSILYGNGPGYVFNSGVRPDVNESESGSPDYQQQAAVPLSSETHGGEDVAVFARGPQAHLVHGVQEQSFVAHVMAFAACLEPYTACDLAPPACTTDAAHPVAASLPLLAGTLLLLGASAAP
Sequence of Intestinal-type alkaline phosphatase (Mus musculus, UniProt P24822) (P24822 whole entry): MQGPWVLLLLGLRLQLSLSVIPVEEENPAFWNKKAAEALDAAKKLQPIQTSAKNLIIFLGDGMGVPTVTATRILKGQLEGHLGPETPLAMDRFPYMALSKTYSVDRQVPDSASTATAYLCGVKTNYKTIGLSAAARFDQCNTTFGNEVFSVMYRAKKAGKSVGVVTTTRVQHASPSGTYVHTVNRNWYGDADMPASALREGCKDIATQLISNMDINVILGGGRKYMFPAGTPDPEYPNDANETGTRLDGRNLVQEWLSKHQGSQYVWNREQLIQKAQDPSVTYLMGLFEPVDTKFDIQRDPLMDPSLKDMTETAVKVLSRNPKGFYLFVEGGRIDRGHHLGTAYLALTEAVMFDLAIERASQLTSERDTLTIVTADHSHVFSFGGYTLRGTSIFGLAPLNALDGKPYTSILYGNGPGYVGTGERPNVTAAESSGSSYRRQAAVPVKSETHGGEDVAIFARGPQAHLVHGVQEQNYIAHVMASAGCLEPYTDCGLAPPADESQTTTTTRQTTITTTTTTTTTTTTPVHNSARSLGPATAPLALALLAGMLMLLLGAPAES
Sequence of Voltage-dependent T-type calcium channel subunit alpha-1H (O95180 whole entry, the tested form may be a part): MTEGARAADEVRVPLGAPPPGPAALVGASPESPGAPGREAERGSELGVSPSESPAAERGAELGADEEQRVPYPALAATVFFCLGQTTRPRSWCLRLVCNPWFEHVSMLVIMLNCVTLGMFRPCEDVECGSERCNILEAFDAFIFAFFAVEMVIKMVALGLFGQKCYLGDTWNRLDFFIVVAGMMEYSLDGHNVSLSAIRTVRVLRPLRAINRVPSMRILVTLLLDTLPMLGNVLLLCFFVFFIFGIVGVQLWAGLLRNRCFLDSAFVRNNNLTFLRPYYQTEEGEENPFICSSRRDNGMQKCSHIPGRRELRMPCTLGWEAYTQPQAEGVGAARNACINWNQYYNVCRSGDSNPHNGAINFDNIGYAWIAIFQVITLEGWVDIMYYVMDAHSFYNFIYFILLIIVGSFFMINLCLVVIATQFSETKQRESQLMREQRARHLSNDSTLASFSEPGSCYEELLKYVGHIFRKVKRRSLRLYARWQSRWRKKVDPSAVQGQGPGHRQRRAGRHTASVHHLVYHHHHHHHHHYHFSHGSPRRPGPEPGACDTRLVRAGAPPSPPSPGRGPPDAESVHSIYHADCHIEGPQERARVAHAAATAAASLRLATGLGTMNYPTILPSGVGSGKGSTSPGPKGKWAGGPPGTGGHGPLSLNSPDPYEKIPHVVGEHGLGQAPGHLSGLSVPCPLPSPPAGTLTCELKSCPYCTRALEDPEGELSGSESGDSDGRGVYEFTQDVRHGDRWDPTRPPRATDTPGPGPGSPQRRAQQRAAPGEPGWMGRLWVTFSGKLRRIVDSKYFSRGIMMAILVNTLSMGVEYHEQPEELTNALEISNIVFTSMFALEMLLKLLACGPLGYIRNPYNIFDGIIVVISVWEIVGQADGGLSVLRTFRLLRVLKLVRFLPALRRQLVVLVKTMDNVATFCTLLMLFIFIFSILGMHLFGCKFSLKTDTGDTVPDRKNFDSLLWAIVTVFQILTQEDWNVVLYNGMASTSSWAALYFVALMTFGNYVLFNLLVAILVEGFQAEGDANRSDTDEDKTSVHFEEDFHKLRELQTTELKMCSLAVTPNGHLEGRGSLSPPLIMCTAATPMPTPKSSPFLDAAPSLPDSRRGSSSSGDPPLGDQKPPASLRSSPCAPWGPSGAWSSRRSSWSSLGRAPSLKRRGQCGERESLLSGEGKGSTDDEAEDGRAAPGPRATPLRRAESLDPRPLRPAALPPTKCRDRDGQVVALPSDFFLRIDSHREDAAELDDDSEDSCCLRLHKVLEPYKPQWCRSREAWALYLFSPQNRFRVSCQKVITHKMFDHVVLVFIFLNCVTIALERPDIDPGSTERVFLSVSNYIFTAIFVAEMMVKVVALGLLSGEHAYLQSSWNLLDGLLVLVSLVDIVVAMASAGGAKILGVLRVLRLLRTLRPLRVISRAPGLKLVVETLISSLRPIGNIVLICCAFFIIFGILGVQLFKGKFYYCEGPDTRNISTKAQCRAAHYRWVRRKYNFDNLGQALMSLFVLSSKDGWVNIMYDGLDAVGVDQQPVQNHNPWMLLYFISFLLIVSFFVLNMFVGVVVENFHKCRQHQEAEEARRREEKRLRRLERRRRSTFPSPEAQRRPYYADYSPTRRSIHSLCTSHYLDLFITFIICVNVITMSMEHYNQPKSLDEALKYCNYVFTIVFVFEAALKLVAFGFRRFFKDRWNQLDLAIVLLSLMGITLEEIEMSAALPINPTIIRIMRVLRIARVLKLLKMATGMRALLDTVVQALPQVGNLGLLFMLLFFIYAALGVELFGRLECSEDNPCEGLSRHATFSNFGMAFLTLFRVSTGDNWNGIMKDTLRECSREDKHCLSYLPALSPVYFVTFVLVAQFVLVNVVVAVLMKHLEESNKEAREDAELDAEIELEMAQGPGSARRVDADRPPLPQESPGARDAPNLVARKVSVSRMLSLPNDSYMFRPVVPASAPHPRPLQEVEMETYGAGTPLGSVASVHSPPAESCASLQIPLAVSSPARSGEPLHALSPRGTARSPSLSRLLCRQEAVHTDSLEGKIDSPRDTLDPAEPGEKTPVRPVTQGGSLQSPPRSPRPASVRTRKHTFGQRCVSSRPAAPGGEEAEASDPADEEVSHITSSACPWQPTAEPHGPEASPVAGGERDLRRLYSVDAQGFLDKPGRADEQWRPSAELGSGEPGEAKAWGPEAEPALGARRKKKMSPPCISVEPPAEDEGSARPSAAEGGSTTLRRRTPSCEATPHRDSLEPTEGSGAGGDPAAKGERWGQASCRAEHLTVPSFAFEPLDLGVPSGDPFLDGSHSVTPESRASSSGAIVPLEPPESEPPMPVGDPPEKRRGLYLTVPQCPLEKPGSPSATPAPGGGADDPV

What is called EC50 is the concentration giving half of the maximal effect. A word on the IC50: it is the concentration at which inhibition is half-maximal. As for `COc1ccc(OC)c(S(=O)(=O)Nc2ccc(O)c(Sc3nc[nH]n3)c2)c1`, the EC50 is 11.5 µM (active) in assay [1]; 62.1 µM (active) in assay [2]; 74.7 µM (active) in assay [3]; 17.7 µM (inconclusive) in assay [5]; 66.9 µM (active) in assay [6]. Besides, the IC50 in assay [4] is 13.1 µM (active).

For orientation: CC50 means the concentration at which the toxic effect on the cells reaches its halfway point. In the case of `COc1ccc(C(CNC(=O)c2cccc(NS(=O)(=O)c3ccc(C)c(F)c3)c2)N2CCCC2)cc1` (configuration not stated), the IC50 in [7] was 11.7 µM (active); in assay [8] it was 15.8 µM (active); in assay [9] it was 15.3 µM (active); in assay [10], > 20 µM (inactive); in assay [11], 38 µM (active). Besides, in [12], the CC50 is > 40 µM (active).

As for `CC(C)(C)CCN1CC2CCC(NC(=O)c3ccc(Cl)cc3Cl)C2C1` (configuration not stated), in [13], the EC50 was 0.36 µM (active).

Regarding `Nc1nc2ccccc2n1S(=O)(=O)c1ccc(OC(F)(F)F)cc1`, the IC50 in assay [14] was 8.94 µM (active); in [15] it was > 20 µM (inactive); in [16], > 20 µM (inactive); in [17], > 20 µM (inactive).
